These results are taken from paper doi:10.1101/2021.10.07.463234v2 (biorxiv, 2021).

The %inhibition is how much of the control response was suppressed. Read a low %inhibition as a weak effect. By inhibition is commonly meant the drop in the measured response relative to a control, in per cent.

Where a name gives a salt, the structure may show the parent alone.

For one experiment, the target named is SARS-CoV-2 Mac1 (Severe acute respiratory syndrome coronavirus 2, UniProt P0DTD1). The experiment in a line: biochemical. The conditions noted are these: 100 µM; inhibitor.
`Cc1cc(C(C#N)c2ccc(Cl)cc2)c(Cl)cc1NC(=O)c1cc(I)cc(I)c1O` (centres unmarked) [Closantel]: the “%inhibition” value is listed as 12.2%.

For the compound `CC(C)(C)c1nc(-c2cccc(NS(=O)(=O)c3c(F)cccc3F)c2F)c(-c2ccnc(N)n2)s1` [Dabrafenib (GSK2118436)], the “%inhibition” value is 34.76%.

With `CC(C)(C)c1nc(-c2cccc(NS(=O)(=O)c3c(F)cccc3F)c2F)c(-c2ccnc(N)n2)s1` [Dabrafenib Mesylate], the “%inhibition” value is on record as 0.5368%.

As for `O=C1CN(/N=C/c2ccc(-c3ccc([N+](=O)[O-])cc3)o2)C(=O)N1` [Dantrolene sodium hemiheptahydrate], the “%inhibition” value worked out at 2.991%.

Turning to `O=C1CN(/N=C/c2ccc(-c3ccc([N+](=O)[O-])cc3)o2)C(=O)N1` [Dantrolene sodium], the “%inhibition” value worked out at 11.92%.

Regarding `CCOc1ccc(Cc2cc([C@@H]3O[C@H](CO)[C@@H](O)[C@H](O)[C@H]3O)ccc2Cl)cc1` [Dapagliflozin propanediol monohydrate], the “%inhibition” value amounted to 0%.

On to `CCOc1ccc(Cc2cc([C@@H]3O[C@H](CO)[C@@H](O)[C@H](O)[C@H]3O)ccc2Cl)cc1` [Dapagliflozin], for which the “%inhibition” value was determined as 1.439%.

The same experiment, now with this note: read-out: %inhibition.
For the compound `O=C(O)CC(O)(CC(=O)O)C(=O)O` [Citric acid trilithium salt tetrahydrate], the inhibition at 100 µM turned out to be 0%.

Consider `Nc1nc(Cl)nc2c1ncn2[C@H]1C[C@H](O)[C@@H](CO)O1` [Cladribine], for which the inhibition at 100 µM was 1.17%.

Consider `CC[C@H]1OC(=O)[C@H](C)[C@@H](O[C@H]2C[C@@](C)(OC)[C@@H](O)[C@H](C)O2)[C@H](C)[C@@H](O[C@@H]2O[C@H](C)C[C@H](N(C)C)[C@H]2O)[C@](C)(OC)C[C@@H](C)C(=O)[C@H](C)[C@@H](O)[C@]1(C)O` [Clarithromycin], for which the inhibition at 100 µM came to 24.2%.

On to `CCCC(=O)OCOC(=O)C1=C(C)NC(C)=C(C(=O)OC)C1c1cccc(Cl)c1Cl` (centres unmarked) [Clevidipine Butyrate], for which the inhibition at 100 µM worked out at 0%.

As for `Cc1cn([C@H]2O[C@@H](CO)[C@H](O)[C@H]2F)c(=O)[nH]c1=O` [Clevudine], the inhibition at 100 µM amounted to 18.3%.

With `CC(C)(C)C(=O)C(Oc1ccc(Cl)cc1)n1ccnc1` (centres unmarked) [Climbazole], the inhibition at 100 µM came out at 18.5%.

Turning to `CCC[C@@H]1C[C@@H](C(=O)N[C@@H]([C@H]2O[C@H](SC)[C@H](OP(=O)(O)O)[C@@H](O)[C@H]2O)[C@H](C)Cl)N(C)C1` [Clindamycin Phosphate], the inhibition at 100 µM was 0%.

As for `CCCCCCCCCCCCCCCC(=O)O[C@@H]1[C@@H](O)[C@@H](O)[C@@H]([C@H](NC(=O)[C@@H]2C[C@@H](CCC)CN2C)[C@H](C)Cl)O[C@@H]1SC` [Clindamycin palmitate HCl], the inhibition at 100 µM is 22.9%.

For the compound `CCC(C)(Oc1ccc(C2(c3ccc(OC(C)(CC)C(=O)O)cc3)CCCCC2)cc1)C(=O)O` (centres unmarked) [Clinofibrate], the inhibition at 100 µM was determined as 0%.

Turning to `Oc1c(I)cc(Cl)c2cccnc12` [Clioquinol], the inhibition at 100 µM turned out to be 6.9%.

In the case of `CCC(=O)O[C@]1(C(=O)CCl)[C@@H](C)C[C@H]2[C@@H]3CCC4=CC(=O)C=C[C@]4(C)[C@@]3(F)[C@@H](O)C[C@@]21C` [Clobetasol propionate], the inhibition at 100 µM worked out at 9.68%.

`Nc1nc(Cl)nc2c1ncn2[C@@H]1O[C@H](CO)[C@@H](O)[C@@H]1F` [Clofarabine]: the inhibition at 100 µM turned out to be 44.7%.

Consider `CC(C)/N=c1\cc2n(-c3ccc(Cl)cc3)c3ccccc3nc-2cc1Nc1ccc(Cl)cc1` [Clofazimine], for which the inhibition at 100 µM worked out at 5.33%.

In the case of `CC(C)(Oc1ccc(Cl)cc1)C(=O)O` [Clofibric Acid], the inhibition at 100 µM worked out at 17.2%.

Turning to `CC(C)(C)CC(C)(C)c1ccc(O)c(Cc2ccc(Cl)cc2Cl)c1` [Clofoctol], the inhibition at 100 µM worked out at 0%.

On to `Clc1cccc(Cl)c1NC1=NCCN1` [Clonidine HCl], for which the inhibition at 100 µM came to 0%.

With `Clc1ccc(C(OCCN2CCCCC2)c2ccccc2)cc1` (centres unmarked) [Cloperastine hydrochloride], the inhibition at 100 µM stood at 5.64%.

In the case of `COC(=O)[C@H](c1ccccc1Cl)N1CCc2sccc2C1` [Clopidogrel], the inhibition at 100 µM is 0%.

Turning to `Cc1nc(C)c(Cl)c(O)c1Cl` [Clopidol], the inhibition at 100 µM stood at 0.707%.

As for `CC(C)NCC(O)c1ccccc1Cl` (centres unmarked) [Clorprenaline HCl], the inhibition at 100 µM was determined as 7.59%.

Turning to `Nc1cc(C(Cl)=C(Cl)Cl)c(S(N)(=O)=O)cc1S(N)(=O)=O` [Clorsulon], the inhibition at 100 µM came out at 7.3%.

As to `Cc1onc(-c2ccccc2Cl)c1C(=O)N[C@@H]1C(=O)N2[C@@H]1SC(C)(C)[C@@H]2C(=O)O` [Cloxacillin Sodium], the inhibition at 100 µM was 9.79%.

Consider `Oc1ccc(Cl)c2cccnc12` [Cloxiquine], for which the inhibition at 100 µM turned out to be 8.06%.

As for `O=C(c1ccc(F)c(F)c1Nc1ccc(I)cc1F)N1CC(O)([C@@H]2CCCCN2)C1` [Cobimetinib (GDC-0973, RG7420)], the inhibition at 100 µM was found to be 5.28%.

For the compound `CC(=O)OCC(=O)[C@@]1(O)CC[C@H]2[C@@H]3CCC4=CC(=O)CC[C@]4(C)[C@H]3C(=O)C[C@@]21C` [Cortisone acetate], the inhibition at 100 µM was 10.7%.

In the case of `O=c1ccc2ccccc2o1` [Coumarin], the inhibition at 100 µM is 5.25%.

Take `CC1(COc2ccc3c(c2)ncn3-c2ccc3cccc(N4CCC(N)CC4)c3n2)COC1` [Crenolanib (CP-868596)]: the inhibition at 100 µM was determined as 0%.

In the case of `N#Cc1ccc(Oc2ccc3c(c2)COB3O)cc1` [Crisaborole (AN2728)], the inhibition at 100 µM was found to be 10%.

Turning to `C[C@@H](Oc1cc(-c2cnn(C3CCNCC3)c2)cnc1N)c1c(Cl)ccc(F)c1Cl` [Crizotinib (PF-02341066)], the inhibition at 100 µM amounted to 6.7%.

As to `COc1cc(/C=C/C(=O)CC(=O)/C=C/c2ccc(O)c(OC)c2)ccc1O` [Curcumin], the inhibition at 100 µM came out at 1.88%.

In the case of `CC1CC(OC(=O)C(O)c2ccccc2)CC(C)(C)C1` (centres unmarked) [Cyclandelate], the inhibition at 100 µM amounted to 0%.

For `C1CNCCNCCNCCN1` [Cyclen], the inhibition at 100 µM is 0%.

Turning to `CN1CCN(C(c2ccccc2)c2ccccc2)CC1` [Cyclizine 2HCl], the inhibition at 100 µM turned out to be 9.76%.

Consider `CN(C)CCC=C1c2ccccc2C=Cc2ccccc21` [Cyclobenzaprine HCl], for which the inhibition at 100 µM stood at 3.24%.

For the compound `CC(=O)Oc1ccc(C(=C2CCCCC2)c2ccc(OC(C)=O)cc2)cc1` [Cyclofenil], the inhibition at 100 µM was 11.6%.

Regarding `CC(=O)O[C@]1(C(C)=O)CC[C@H]2[C@@H]3C=C(Cl)C4=CC(=O)[C@@H]5C[C@@H]5[C@]4(C)[C@H]3CC[C@@]21C` [Cyproterone Acetate], the inhibition at 100 µM turned out to be 0%.

Turning to `Nc1nc(N)nc(NC2CC2)n1` [Cyromazine], the inhibition at 100 µM is 20.5%.

With `NCCS` [Cysteamine HCl], the inhibition at 100 µM was determined as 35.3%.

For `Nc1ccn([C@@H]2O[C@H](CO)[C@@H](O)[C@@H]2O)c(=O)n1` [Cytarabine], the inhibition at 100 µM is 0%.

On to `O=c1cccc2n1C[C@@H]1CNC[C@H]2C1` [Cytisine], for which the inhibition at 100 µM amounted to 0%.

On to `CC(C)(CO)[C@@H](O)C(=O)NCCCO` [D panthenol], for which the inhibition at 100 µM amounted to 0%.

Consider `N[C@@H]1CONC1=O` [D-Cycloserine], for which the inhibition at 100 µM was determined as 6.32%.

Regarding `OC[C@@H](O)[C@@H](O)[C@H](O)[C@H](O)CO` [D-Mannitol], the inhibition at 100 µM was 0%.

On to `N[C@H](Cc1ccccc1)C(=O)O` [D-Phenylalanine], for which the inhibition at 100 µM was 4.94%.

For the compound `NC(=O)CC[C@@H](N)C(=O)O` [D-glutamine], the inhibition at 100 µM worked out at 2.59%.

On to `CCCCCCOC(=O)NC(=N)c1ccc(NCc2nc3cc(C(=O)N(CCC(=O)OCC)c4ccccn4)ccc3n2C)cc1` [Dabigatran Etexilate], for which the inhibition at 100 µM stood at 0%.

Take `CN(C)/N=N/c1[nH]cnc1C(N)=O` [Dacarbazine]: the inhibition at 100 µM worked out at 26.1%.

Take `COC(=O)N[C@H](C(=O)N1CCC[C@H]1c1ncc(-c2ccc(-c3ccc(-c4cnc([C@@H]5CCCN5C(=O)[C@@H](NC(=O)OC)C(C)C)[nH]4)cc3)cc2)[nH]1)C(C)C` [Daclatasvir (BMS-790052)]: the inhibition at 100 µM is 1.65%.

For the compound `COc1cc2ncnc(Nc3ccc(F)c(Cl)c3)c2cc1NC(=O)/C=C/CN1CCCCC1` [Dacomitinib (PF299804, PF299)], the inhibition at 100 µM was 3.46%.

For the compound `CN[C@H]1C(=O)N[C@@H]2Cc3ccc(cc3)Oc3cc4cc(c3O[C@@H]3O[C@H](C(=O)O)[C@@H](O)[C@H](O)[C@H]3NC(=O)CCCCCCCCC(C)C)Oc3ccc(cc3Cl)[C@@H](O)[C@@H]3NC(=O)[C@H](NC(=O)[C@@H]4NC(=O)[C@@H](NC2=O)c2cc(cc(O)c2Cl)Oc2cc1ccc2O)c1ccc(O)c(c1)-c1c(O[C@H]2O[C@H](CO)[C@@H](O)[C@H](O)[C@@H]2O)cc(O)cc1[C@@H](C(=O)NCCCN(C)C)NC3=O` [Dalbavancin], the inhibition at 100 µM amounted to 23.4%.

On to `CN1C[C@@H]2C[C@H]1CN2c1cc2c(cc1F)c(=O)c(C(=O)O)cn2C1CC1` [Danofloxacin Mesylate], for which the inhibition at 100 µM amounted to 0%.

With `O=C1c2cccc(O)c2C(=O)c2c(O)cccc21` [Danthron], the inhibition at 100 µM was 0%.

`Cc1ccccc1N1CCN(CCc2nnc3n2CCCC3)CC1` [Dapiprazole Hydrochloride]: the inhibition at 100 µM was 12.7%.

For `CN(C)[C@@H](CCOc1cccc2ccccc12)c1ccccc1` [Dapoxetine HCl], the inhibition at 100 µM is 35.7%.

For the compound `Nc1ccc(S(=O)(=O)c2ccc(N)cc2)cc1` [Dapson], the inhibition at 100 µM stood at 0%.

For the compound `CCCCCCCCCC(=O)N[C@@H](Cc1c[nH]c2ccccc12)C(=O)N[C@H](CC(N)=O)C(=O)N[C@@H](CC(=O)O)C(=O)N[C@@H]1C(=O)NCC(=O)N[C@@H](CCCN)C(=O)N[C@@H](CC(=O)O)C(=O)N[C@H](C)C(=O)N[C@@H](CC(=O)O)C(=O)NCC(=O)N[C@H](CO)C(=O)N[C@@H]([C@H](C)CC(=O)O)C(=O)N[C@@H](CC(=O)c2ccccc2N)C(=O)O[C@@H]1C` [Daptomycin], the inhibition at 100 µM worked out at 1.7%.

On to `NC(=O)C(c1ccccc1)(c1ccccc1)[C@@H]1CCN(CCc2ccc3c(c2)CCO3)C1` [Darifenacin HBr], for which the inhibition at 100 µM is 0%.

Consider `CC(C)CN(C[C@@H](O)[C@H](Cc1ccccc1)NC(=O)O[C@H]1CO[C@H]2OCC[C@H]21)S(=O)(=O)c1ccc(N)cc1` [Darunavir Ethanolate], for which the inhibition at 100 µM was 0%.
